Experimental data from ChEMBL document CHEMBL1126515 (Bioorg Med Chem Lett, 1993).

Legend:
[1] = biological target: T1, Gastrin/cholecystokinin type B receptor (Mus musculus, UniProt P56481); test: Compound measured for half-maximal inhibition of specific binding of [125I]bolton Hunter CCK-26-33 to CCK-B receptor in the mouse cerebral cortex.; type: tissue-based
T1 sequence (P56481 whole entry): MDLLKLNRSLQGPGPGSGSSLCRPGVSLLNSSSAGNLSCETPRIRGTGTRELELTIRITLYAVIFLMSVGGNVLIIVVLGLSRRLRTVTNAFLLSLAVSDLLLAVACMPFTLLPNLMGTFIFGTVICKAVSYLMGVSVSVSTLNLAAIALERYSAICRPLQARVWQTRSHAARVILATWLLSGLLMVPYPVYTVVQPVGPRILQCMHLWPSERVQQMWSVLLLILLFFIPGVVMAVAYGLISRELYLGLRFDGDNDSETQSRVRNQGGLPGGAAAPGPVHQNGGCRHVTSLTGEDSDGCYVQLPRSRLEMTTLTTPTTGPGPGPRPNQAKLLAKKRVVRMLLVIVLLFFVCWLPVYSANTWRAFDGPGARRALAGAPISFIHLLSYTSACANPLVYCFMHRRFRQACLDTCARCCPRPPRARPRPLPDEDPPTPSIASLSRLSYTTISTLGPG

[2] = biological target: T2, Cholecystokinin receptor type A (Rattus norvegicus, UniProt P30551)
T2 sequence (P30551 whole entry): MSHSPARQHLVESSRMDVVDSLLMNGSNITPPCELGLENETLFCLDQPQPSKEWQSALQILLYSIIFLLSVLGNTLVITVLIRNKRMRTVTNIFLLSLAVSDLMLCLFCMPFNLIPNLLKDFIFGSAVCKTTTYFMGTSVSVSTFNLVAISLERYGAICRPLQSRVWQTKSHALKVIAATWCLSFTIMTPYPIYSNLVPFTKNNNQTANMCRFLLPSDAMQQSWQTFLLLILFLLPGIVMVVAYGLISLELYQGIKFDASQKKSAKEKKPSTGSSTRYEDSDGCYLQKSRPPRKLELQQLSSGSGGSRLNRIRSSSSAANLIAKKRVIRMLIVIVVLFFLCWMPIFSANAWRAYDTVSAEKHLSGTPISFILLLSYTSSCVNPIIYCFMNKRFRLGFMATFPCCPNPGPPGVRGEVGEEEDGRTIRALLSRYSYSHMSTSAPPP
Description: Compound measured for half-maximal inhibition of specific binding of [125I]-Bolton Hunter CCK-26-33 to CCK-A receptor in the rat pancreas.

SMILES	IC50 [1]	IC50 [2]
O=C(O)C[C@H](Cc1ccccc1)NC(=O)/C(=C/c1c[nH]c2ccccc12)NC(=O)OC1C2CC3CC(C2)CC1C3 (some centres undefined)	13 nM	550 nM
C[C@](Cc1c[nH]c2ccccc12)(NC(=O)OC1C2CC3CC(C2)CC1C3)C(=O)N[C@H](CC(=O)O)Cc1ccccc1 (some centres undefined)		30 nM
O=C(O)C[C@@H](Cc1ccccc1)NC(=O)C(=Cc1c[nH]c2ccccc12)NC(=O)OC1C2CC3CC(C2)CC1C3 (some centres undefined)	60 nM	3.9 nM
O=C(O)C[C@@H](Cc1ccccc1)NC(=O)/C(=C/c1c[nH]c2ccccc12)NC(=O)OC1C2CC3CC(C2)CC1C3 (some centres undefined)	99 nM	3.7 nM
O=C(O)C[C@H](Cc1ccccc1)NC(=O)C(=Cc1c[nH]c2ccccc12)NC(=O)OC1C2CC3CC(C2)CC1C3 (some centres undefined)	0.3 nM	18 nM
